Measurements from patent EP4491190A1, “SMALL PROTEINS FOR USE AS SENOLYTIC AND SENOMORPHIC AGENTS” (Fundación Imdea Alimentación, priority 2023, dated 2025).

Tests used:
Type in all cases: cell-based, human
[1] = system: SKMel-103, A549, Huh7, SH-SY5Y cells; assay: MTT cell viability in different models of cellular senescence and cancer cell lines; details: senescent cancerous cell lines, senescence by doxorubicin, bleomycin or palbociclib
Method: (§1) Cells were plated in 96 well plates at a density of 3×10^3-8×10^3 cells/well (proliferative) or 8×10^3-10×10^3 cells/well (senescent). An MTT assay (Sigma-Aldrich, Merck KGaA, Darmstadt, Germany) was used to measure cell viability after 48-96 h of treatments. Briefly, MTT was diluted in 0.1 M phosphate buffered saline (PBS) and added to cells grown in 96-well plates at a final concentration of 0.5 mg/ml. After incubation for 2-4 hr at 37°C with MTT, the culture medium was removed. The precipitated formazan was solubilized with dimethyl sulfoxide (DMSO). Absorbance was measured at 570 nm using a microplate reader (Victor Nivo; Perkin Elmer, Hamburg, Germany). For these assays, the effects of vehicle or treatments were expressed as the % of change of the non-treated cells.
Next, it was evaluated the senolytic capacity of Tvs1 in different models of cellular senescence and cancer cell lines. For that purpose, chemotherapy known to induce cellular senescence by genotoxic damage (doxorubicin and bleomycin) or by inhibiting cyclin-dependent kinases (palbociclib) was used. Cellular models of melanoma, lung adenocarcinoma (A549), hepatoma (Huh7) and neuroblastoma (SH-SY5Y) were used. Tvs1G consistently produced a senolytic effect in all the cancerous cell lines tested independently of the stimulus for achieving cellular senescence (Figure 2, Figures 4F, 4G, 4H). […]

SKMel-103 cells = assay: MTT cell viability assay in proliferative and palbociclib-induced senescent SKMel-103 cells
Method: as §1
Therefore, the MTT assay was used to measure cell viability in proliferative and senescent cells. The model of cellular senescence induced by cyclin-dependent kinases (CDK) inhibition with Palbociclib (Baughn, L. B., et al. A Novel Orally Active Small Molecule Potently Induces G1 Arrest in Primary Myeloma Cells and Prevents Tumor Growth by Specific Inhibition of Cyclin-Dependent Kinase 4/6. Cancer Research (2006), 66(15), 7661-7667; Fry, D. W. et al. Specific inhibition of cyclin-dependent kinase 4/6 by PD 0332991 and associated antitumor activity in human tumor xenografts. Molecular Cancer Therapeutics, (2004) 3(11), 1427-1438) was used. Palbociclib is a CDK inhibitor, which promotes many markers of cellular senescence (Klein, M. E., et al. CDK4/6 Inhibitors: The Mechanism of Action May Not Be as Simple as Once Thought. Cancer Cell, (2018) 34(1), 9-20; Llanos, S., et al. Lysosomal trapping of palbociclib and its functional implications. Oncogene, (2019) 38(20), 3886-3902), including an enlarged and flattened cell shape and an enhanced senescence-associated β-galactosidase (SA-β-gal) activity (Figure 1A). Treatment with increasing concentrations of Tvs1 (0.1 nM to 3 µM) led to a dose-dependent reduction in viability of SKMel103 cells (Figure 1B). […]

[2] = system: senescent HGPS skin fibroblast; assay: Senolysis in HGPS skin fibroblasts (viability, β-galactosidase staining); details: 48h
Method: All human cancer cell lines and the non-transformed fibroblast lines were maintained in a humidified incubator at 37°C and 5% CO2 and used between passages 4 and 15. All lines were frequently checked and ensured to be mycoplasma free. Cells were split twice a week and before archiving an 90% confluency. SKMel103, SH-SY5Y, Huh7, A549, U251 were donated from collaborators or obtained from the Translational Venomics' stock. Primary lung fibroblasts (PCS201013) and primary dermal fibroblasts (PCS201012) were purchased from ATCC (Manassas, VA, USA). Skin fibroblasts from Hutchinson-Gilford progeria syndrome donors were purchase from the Progeria Research Foundation (HGADFN 127, 143, 167, 178) or Coriell Institute (AG01972E, AG06917K and AG11513F). The cells were maintained following the recommendations of the cell banks.
Cells were plated in 96 well plates at a density of 3×10^3-8×10^3 cells/well (proliferative) or 8×10^3-10×10^3 cells/well (senescent). An MTT assay (Sigma-Aldrich, Merck KGaA, Darmstadt, Germany) was used to measure cell viability after 48-96 h of treatments. […] Absorbance was measured at 570 nm using a microplate reader (Victor Nivo; Perkin Elmer, Hamburg, Germany). For these assays, the effects of vehicle or treatments were expressed as the % of change of the non-treated cells. […]

Structure (SMILES)	senolytic effect [1]	senolytic effect (SKMel-103 cells; tested senescent melanoma cells)	senolysis / viability [2]	EC50 (SKMel-103 cells; Homo sapiens, SK-MEL-103, palbociclib-induced senescent SKMel-103 cells, 48h treatment, read-out: EC50 (senolytic potency))	SI (SKMel-103 cells; senolytic index, ratio of the IC50 in proliferative and senescent cells)
O=c1c(O)c(-c2ccc(O)c(O)c2)oc2cc(O)ccc12 [F, fisetin]	failed				
O=c1c(O)c(-c2ccc(O)c(O)c2)oc2cc(O)cc(O)c12 [Q, quercetin]	failed				
C[C@H]1O[C@@H](O[C@H]2[C@@H](O)C[C@H](O[C@H]3[C@@H](O)C[C@H](O[C@H]4CC[C@@]5(C)[C@H](CC[C@@H]6[C@@H]5C[C@@H](O)[C@]5(C)[C@@H](C7=CC(=O)OC7)CC[C@]65O)C4)O[C@@H]3C)O[C@@H]2C)C[C@H](O)[C@@H]1O [digoxin]		not effective	failed		
CC1(C)CCC(c2ccc(Cl)cc2)=C(CN2CCN(c3ccc(C(=O)NS(=O)(=O)c4ccc(N[C@H](CCN5CCOCC5)CSc5ccccc5)c(S(=O)(=O)C(F)(F)F)c4)cc3)CC2)C1 [navitoclax]			failed	400 nM	22
